# Results from patent publication US12637424B2, “Pharmaceutical salt of an arylpyrrole derivative” (SENTINEL ONCOLOGY LIMITED, priority 2020, dated 2026).
# Assays:
# [1] = test system: HeLa cells stably expressing a Centrin1-GFP fusion protein; assay: Centriole number (Centrin1-GFP) assay; assay type: cell-based; conditions: 0.02 μM, 72 hours
# Method: The effect of A-2 on centrosome function was therefore investigated further. HeLa cells stably expressing a Centrin1-GFP fusion protein were seeded into 96-well plates overnight. Cells were treated with atropisomer A-2 (at a concentration of 0.02 μM in DMSO) or DMSO control for 72 hours and then imaged using a fluorescence microscope. Multiple cell fields were captured for each treatment condition, and the images were subsequently analysed manually. Centrin1-GFP specifically marks centrioles as discrete foci, and therefore can be used to quantitate centriole number per cell. Thus, for each treatment condition, 100 cells were analysed and the number of centrioles present in each cell was recorded. The data were then separated into bins (no centrioles, 1 centriole, 2 centrioles, and greater than 2 centrioles) and are shown in FIG. 11.
# [2] = target: T1, panel of ninety-seven kinases (Homo sapiens, UniProt P21802); assay: DiscoverX KinomeScreen competition binding assay (kinase selectivity panel); conditions: FGFR2; screened at 3000 nM
# T1 construct: purchased DiscoverX; host or cells: E. coli (BL21-derived, T7 phage display) or HEK-293
# T1 sequence (P21802 22-821): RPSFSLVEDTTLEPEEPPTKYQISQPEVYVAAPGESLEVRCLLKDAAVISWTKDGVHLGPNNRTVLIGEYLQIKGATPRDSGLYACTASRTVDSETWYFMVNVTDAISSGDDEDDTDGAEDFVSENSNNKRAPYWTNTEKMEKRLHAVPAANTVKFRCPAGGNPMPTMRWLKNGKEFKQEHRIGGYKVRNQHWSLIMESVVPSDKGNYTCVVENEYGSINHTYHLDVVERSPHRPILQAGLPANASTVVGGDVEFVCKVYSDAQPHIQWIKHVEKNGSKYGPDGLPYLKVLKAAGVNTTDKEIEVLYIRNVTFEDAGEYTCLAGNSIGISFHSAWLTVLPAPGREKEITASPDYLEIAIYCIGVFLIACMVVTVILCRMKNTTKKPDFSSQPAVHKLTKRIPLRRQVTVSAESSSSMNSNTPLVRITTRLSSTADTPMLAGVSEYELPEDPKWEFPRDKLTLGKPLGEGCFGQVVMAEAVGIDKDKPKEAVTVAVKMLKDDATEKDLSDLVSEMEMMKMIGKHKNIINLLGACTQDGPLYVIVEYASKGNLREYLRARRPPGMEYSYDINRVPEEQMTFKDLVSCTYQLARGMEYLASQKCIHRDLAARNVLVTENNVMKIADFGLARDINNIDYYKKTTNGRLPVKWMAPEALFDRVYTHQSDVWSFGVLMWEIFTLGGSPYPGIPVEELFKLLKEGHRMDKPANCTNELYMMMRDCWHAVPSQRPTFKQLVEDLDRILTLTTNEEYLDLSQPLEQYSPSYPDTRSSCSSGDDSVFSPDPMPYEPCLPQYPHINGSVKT
# In short: (§1)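 Kinases on T7 phage (BL21-derived E. coli host) or DNA-tagged from HEK-293 cells compete between compound and a bead-immobilized biotinylated ligand. Captured kinase is eluted and quantified by qPCR. Compound is tested at 3000 nM (3 μM); binding is reported as % Ctrl, with DMSO as 100% and control compound as 0%.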
# [3] = target: T2, panel of ninety-seven kinases (Homo sapiens, UniProt P49841); assay: as above; conditions: GSK3B; screened at 3000 nM
# T2 construct: purchased DiscoverX; host or cells: E. coli (BL21-derived, T7 phage display) or HEK-293
# T2 sequence (P49841 whole entry): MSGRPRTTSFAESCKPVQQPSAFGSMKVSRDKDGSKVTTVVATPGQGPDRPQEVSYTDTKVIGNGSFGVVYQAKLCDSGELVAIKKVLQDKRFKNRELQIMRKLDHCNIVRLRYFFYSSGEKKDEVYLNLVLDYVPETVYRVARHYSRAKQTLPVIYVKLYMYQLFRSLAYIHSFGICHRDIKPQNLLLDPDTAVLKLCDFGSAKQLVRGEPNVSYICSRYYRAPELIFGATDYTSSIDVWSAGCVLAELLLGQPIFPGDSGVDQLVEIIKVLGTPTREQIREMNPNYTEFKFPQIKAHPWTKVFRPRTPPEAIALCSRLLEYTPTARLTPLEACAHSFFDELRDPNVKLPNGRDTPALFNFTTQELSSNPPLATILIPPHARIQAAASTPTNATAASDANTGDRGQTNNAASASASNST
# In short: as §1
# [4] = target: T3, panel of ninety-seven kinases (Homo sapiens, UniProt P78368); assay: as above; conditions: CSNK1G2; screened at 3000 nM
# T3 construct: purchased DiscoverX; host or cells: E. coli (BL21-derived, T7 phage display) or HEK-293
# T3 sequence (P78368 whole entry): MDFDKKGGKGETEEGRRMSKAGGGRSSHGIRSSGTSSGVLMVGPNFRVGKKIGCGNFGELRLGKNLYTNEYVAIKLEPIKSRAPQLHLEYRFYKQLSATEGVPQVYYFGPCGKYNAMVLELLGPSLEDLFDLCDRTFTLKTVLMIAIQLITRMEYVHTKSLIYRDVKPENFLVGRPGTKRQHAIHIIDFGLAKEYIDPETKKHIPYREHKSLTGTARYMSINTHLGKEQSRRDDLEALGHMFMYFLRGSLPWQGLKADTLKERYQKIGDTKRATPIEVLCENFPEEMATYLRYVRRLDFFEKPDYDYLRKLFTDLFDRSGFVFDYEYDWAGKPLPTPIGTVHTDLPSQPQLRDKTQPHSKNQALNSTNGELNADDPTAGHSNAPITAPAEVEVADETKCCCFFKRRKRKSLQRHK
# In short: as §1
# [5] = target: T4, panel of ninety-seven kinases (Homo sapiens, UniProt Q02156); assay: as above; conditions: PRKCE; screened at 3000 nM
# T4 construct: purchased DiscoverX; host or cells: E. coli (BL21-derived, T7 phage display) or HEK-293
# T4 sequence (Q02156 whole entry): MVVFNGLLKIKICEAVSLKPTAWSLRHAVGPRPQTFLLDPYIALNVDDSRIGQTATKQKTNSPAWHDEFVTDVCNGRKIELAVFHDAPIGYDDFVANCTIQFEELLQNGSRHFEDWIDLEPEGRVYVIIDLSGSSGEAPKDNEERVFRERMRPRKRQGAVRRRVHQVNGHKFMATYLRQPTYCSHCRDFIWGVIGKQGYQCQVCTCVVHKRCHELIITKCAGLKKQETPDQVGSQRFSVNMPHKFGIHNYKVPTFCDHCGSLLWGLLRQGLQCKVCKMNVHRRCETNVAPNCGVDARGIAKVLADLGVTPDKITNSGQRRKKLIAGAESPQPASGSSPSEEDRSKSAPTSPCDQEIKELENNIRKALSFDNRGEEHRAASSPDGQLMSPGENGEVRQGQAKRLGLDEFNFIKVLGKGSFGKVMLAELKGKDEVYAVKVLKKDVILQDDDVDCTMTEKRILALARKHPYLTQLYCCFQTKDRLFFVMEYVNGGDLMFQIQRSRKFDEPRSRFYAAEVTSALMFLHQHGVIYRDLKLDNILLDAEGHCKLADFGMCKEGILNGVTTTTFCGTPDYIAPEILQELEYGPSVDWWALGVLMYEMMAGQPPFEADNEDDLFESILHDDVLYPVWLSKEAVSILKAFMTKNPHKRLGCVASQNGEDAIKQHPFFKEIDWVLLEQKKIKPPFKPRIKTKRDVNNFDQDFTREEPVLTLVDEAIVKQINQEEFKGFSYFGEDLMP
# In short: as §1
# [6] = target: T5, panel of ninety-seven kinases (Homo sapiens, UniProt Q02750); assay: as above; conditions: MAP2K1; screened at 3000 nM
# T5 construct: purchased DiscoverX; host or cells: E. coli (BL21-derived, T7 phage display) or HEK-293
# T5 sequence (Q02750 whole entry): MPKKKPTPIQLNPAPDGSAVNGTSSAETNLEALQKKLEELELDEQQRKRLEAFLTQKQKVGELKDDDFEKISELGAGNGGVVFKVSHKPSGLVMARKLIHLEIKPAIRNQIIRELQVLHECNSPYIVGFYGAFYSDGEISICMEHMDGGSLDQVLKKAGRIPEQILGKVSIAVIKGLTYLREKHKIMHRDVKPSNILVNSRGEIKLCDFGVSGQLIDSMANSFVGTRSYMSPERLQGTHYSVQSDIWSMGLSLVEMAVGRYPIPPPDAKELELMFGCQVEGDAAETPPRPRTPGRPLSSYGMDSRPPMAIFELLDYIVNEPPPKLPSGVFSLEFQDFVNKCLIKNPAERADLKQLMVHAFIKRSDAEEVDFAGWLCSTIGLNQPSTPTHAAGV
# In short: as §1
# [7] = target: T6, panel of ninety-seven kinases (Homo sapiens, UniProt Q15831); assay: as above; conditions: STK11; screened at 3000 nM
# T6 construct: purchased DiscoverX; host or cells: E. coli (BL21-derived, T7 phage display) or HEK-293
# T6 sequence (Q15831 whole entry): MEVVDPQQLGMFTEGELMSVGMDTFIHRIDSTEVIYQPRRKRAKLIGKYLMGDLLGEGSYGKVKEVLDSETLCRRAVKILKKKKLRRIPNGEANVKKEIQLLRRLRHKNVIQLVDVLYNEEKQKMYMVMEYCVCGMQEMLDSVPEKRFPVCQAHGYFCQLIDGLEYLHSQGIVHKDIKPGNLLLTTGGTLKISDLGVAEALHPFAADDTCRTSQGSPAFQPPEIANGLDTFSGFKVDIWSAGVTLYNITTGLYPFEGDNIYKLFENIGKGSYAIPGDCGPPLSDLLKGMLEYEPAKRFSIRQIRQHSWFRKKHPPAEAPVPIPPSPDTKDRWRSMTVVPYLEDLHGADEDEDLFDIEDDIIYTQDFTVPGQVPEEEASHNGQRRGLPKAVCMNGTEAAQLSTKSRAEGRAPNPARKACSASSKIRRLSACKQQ
# In short: as §1
# [8] = target: T7, panel of ninety-seven kinases (Homo sapiens, UniProt Q9Y6R4); assay: as above; conditions: MAP3K4; screened at 3000 nM
# T7 construct: purchased DiscoverX; host or cells: E. coli (BL21-derived, T7 phage display) or HEK-293
# T7 sequence (Q9Y6R4 whole entry): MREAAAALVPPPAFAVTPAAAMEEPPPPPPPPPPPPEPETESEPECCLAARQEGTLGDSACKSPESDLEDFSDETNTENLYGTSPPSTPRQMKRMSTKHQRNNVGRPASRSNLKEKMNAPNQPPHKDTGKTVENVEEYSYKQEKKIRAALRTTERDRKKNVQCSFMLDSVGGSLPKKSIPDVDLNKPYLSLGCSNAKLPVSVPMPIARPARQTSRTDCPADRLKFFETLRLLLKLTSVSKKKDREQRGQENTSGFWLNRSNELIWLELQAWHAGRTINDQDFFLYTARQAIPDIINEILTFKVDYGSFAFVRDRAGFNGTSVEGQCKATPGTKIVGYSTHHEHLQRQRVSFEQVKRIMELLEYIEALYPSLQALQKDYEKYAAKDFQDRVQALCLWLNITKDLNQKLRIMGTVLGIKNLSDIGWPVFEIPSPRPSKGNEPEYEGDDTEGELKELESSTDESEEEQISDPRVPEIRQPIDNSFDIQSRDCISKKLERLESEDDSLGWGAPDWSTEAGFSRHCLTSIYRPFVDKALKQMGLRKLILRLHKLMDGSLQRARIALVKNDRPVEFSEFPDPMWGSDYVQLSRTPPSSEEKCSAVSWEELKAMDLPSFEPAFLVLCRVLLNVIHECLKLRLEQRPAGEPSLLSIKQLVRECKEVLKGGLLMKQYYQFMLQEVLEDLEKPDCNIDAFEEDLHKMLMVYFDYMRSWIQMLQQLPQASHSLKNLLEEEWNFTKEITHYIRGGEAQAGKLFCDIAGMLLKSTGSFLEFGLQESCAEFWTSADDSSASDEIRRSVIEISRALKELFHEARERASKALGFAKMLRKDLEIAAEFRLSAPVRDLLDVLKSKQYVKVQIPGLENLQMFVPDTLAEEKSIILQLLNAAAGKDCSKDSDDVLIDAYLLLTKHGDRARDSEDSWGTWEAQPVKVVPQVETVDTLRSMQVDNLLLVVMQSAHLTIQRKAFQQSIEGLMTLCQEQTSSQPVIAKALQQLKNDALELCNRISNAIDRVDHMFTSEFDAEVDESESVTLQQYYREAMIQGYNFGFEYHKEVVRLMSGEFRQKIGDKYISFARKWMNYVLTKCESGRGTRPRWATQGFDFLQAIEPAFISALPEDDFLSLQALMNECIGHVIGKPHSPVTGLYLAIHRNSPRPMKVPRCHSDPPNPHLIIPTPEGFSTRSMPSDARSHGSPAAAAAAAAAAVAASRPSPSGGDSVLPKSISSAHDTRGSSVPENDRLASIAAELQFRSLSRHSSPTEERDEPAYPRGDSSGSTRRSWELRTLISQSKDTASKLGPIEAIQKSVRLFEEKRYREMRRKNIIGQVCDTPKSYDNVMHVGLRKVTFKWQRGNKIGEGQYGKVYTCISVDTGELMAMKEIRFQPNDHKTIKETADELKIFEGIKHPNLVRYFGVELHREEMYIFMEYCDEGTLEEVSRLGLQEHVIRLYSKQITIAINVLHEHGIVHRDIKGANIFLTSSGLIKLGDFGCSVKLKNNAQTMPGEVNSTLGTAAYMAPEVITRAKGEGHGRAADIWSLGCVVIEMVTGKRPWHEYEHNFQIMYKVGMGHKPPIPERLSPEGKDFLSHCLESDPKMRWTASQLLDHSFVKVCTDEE
# In short: as §1
# [9] = Oral bioavailability and brain exposure in mouse PK; assay type: in vivo, Male CD-1 mice; conditions: mice
# Method: Atropisomer A-2 was evaluated in an in vivo mouse model to determine brain and plasma concentrations following p.o. and i.v. dosing. Male CD-1 mice were dosed with atropisomer A-2, either by i.v. administration (2 mg/kg) or by p.o. administration (10 mg/kg). Eight samples were taken for analysis in the i.v. leg at 2, 10, 30 min, 1, 2, 4, 8, and 24 (for i.v) and 9 samples in the p.o. leg at 15, 30 min, 1, 2, 4, 8, 24, 48 and 72 hrs. Atropisomer A-2 was formulated in 10% DMSO/[…] hydroxypropyl-beta-cyclodextrin (20% w/v in water) for i.v. and p.o. dosing. N=3 mice per time point. Post dosing, terminal blood samples were taken from individual animals and delivered into labelled polypropylene tubes containing anticoagulant (EDTA). The samples were held on wet ice for a maximum of 30 min while sampling of all the animals in the cohort was completed. The blood samples were centrifuged for plasma (4° C., 21100 g for 5 min) and the resulting plasma transferred into corresponding labelled tubes. Terminal brains from each PO dosed animal were excised, rinsed with saline and placed into pre-weighed labelled polypropylene tubes and the samples re-weighed prior to storage. Quantitative bioanalysis was carried out using liquid chromatography—mass spectroscopy was performed. The results are shown in Tables 14 and 15 below and in FIGS. 12 and 13.
# [10] = test system: U87-Luc cells intracerebrally implanted; assay: U87-Luc orthotopic xenograft model; assay type: in vivo, male athymic nude mice; conditions: oral 100 mg/kg on days 1, 4, 7, 10 and 13; Day 15
# Method: U87-Luc cells were intracerebrally implanted into the brains of male athymic nude mice and tumour growth was monitored by bioluminescent signal. In the treatment group animals were given an oral dose of 100 mg/kg of atropisomer A-2 on days 1, 4, 7, 10 and 13. The control group animals were given vehicle only.
smiles,measurement,setting,value
"CN(C)CCNC(=O)c1ccc(-c2ccc(-c3ccc(Cl)cc3)n2-c2ccccc2C(F)(F)F)cc1 (single isomer, unassigned) [Atropisomer A-2]",effect on centriole number per cell,[1],evidence of PLK4 inhibition phenotypes
same,% Ctrl @ 3 μM,[2],85 % Ctrl
same,% Ctrl @ 3 μM,[3],88 % Ctrl
same,% Ctrl @ 3 μM,[4],100 % Ctrl
same,% Ctrl @ 3 μM,[5],99 % Ctrl
same,% Ctrl @ 3 μM,[6],84 % Ctrl
same,% Ctrl @ 3 μM,[7],81 % Ctrl
same,% Ctrl @ 3 μM,[8],93 % Ctrl
same,CI,"[9]; 2 mg/Kg IV, plasma",20.5 mL/min/kg
same,F,[9]; 10 mg/Kg PO vs 2 mg/Kg IV,76%
same,"bioluminescent tumour signal, treated versus control",[10],a decrease in tumour signal
